Measured values taken from patent publication US20050282772A1, “New dietary supplement composition for obesity and inflammation” (priority 2004, published 2005).

Assays:
[1] = in vivo; cited from earlier work
5-Lipoxygenase = 5-Lipoxygenase inhibitory activity, colorimetric method (ferric xylenol orange); type: biochemical
Method: 5-Lipoxygenase Activity: The new phytochemical compositions were screened for their 5-Lipoxygenase inhibitory potential using colorimetric method. The assay mixture contained 50 mM phosphate buffer pH 6.3, 5-Lipoxygenase, various concentrations of test substances in dimethyl sulphoxide and linoleic acid in a total volume of 0.5 mL, after 5 min incubation of above reaction mixture, 0.5 mL ferric xylenol orange reagent was added and OD was measured after two minutes at 585 nm using spectrophotometer. Controls were run along with test in a similar manner except using vehicle instead of test substance solution. Percent inhibition was calculated by comparing absorbance of test solution with that of control. The new phytochemical compositions of this invention are found to show 5-lipoxygenase activity (Table 1; 5-lipoxygenase activity is expressed in % of inhibition at 100 μg concentrations; higher the % inhibitory values, higher is the activity).

[2] = Superoxide free radical-scavenging activity by NBT (nitro blue tetrazolium) method
Method: Superoxide Free Radical-Scavenging Activity. The superoxide free radical-scavenging activity was determined by the NBT (nitro blue tetrazolium) method. The reaction mixture contained EDTA (6.6 mM), NaCN (3 μg), riboflavin (2 μM), NBT (50 μM), various concentrations of the test drug in ethanol and a phosphate buffer (58 mM, pH 7.8) in a final volume of 3 ml. Optical density was measured at 560 nm. The test tubes were uniformly illuminated with an incandescent lamp for 15 min, after which the optical density was measured again at 560 nm. The percentage inhibition and superoxide radical generation was measured by comparing the absorbance values of the control and those of the test compounds.
(§1) The new phytochemical compositions of this invention are found to show antioxidant activity (Table 1; antioxidant activity is measured by two different mechanisms (a) Nitro blue tetrazolium (NBT) (b) DPPH free radical scavenging methods and are expressed in % of inhibition at 500 μg concentrations; higher the % inhibitory values, higher is the activity).

[3] = DPPH free radical scavenging activity
Method: DPPH Free Radical Scavenging Activity. DPPH (1,1-diphenyl-2-picryl-hydrazyl) radical scavenging activity was measured based on the reduction of methanolic solution of the colored DPPH. Free radical scavenging ability of the test drug in ethanol added to the methanolic solution of DPPH is […] to the difference in initial and final absorption of DPPH solution at 516 nm. The reaction mixture contained 1×10^−4 mM methanolic solution of DPPH and various concentrations of test drugs. The percentage inhibition was determined by comparing the absorbance values of test and control tubes.
as §1

[4] = similar active dose; animal study; cited from earlier work

| % inhibition of 5-LOX activity at 100 μg concentrations (5-Lipoxygenase) | Compound | LD50 [1] | % inhibition of NBT free radical scavenging activity at 500 μg concentrations [2] | % inhibition of DPPH free radical scavenging activity at 500 μg concentrations [3] | ulcerogan index [4] |
| --- | --- | --- | --- | --- | --- |
|  | N[C@@H](Cc1c[nH]c2ccc(O)cc12)C(=O)O [Composition 5-HTP, 5-Hydroxytryptophan] | > 2500 mg/kg |  |  |  |
| 0% | Cl.N[C@H]1C(O)O[C@H](CO)[C@@H](O)[C@@H]1O (some centres unmarked) [Glucosamine HCl, glucosamine hydrochloride] |  | 5.6% | 2.8% |  |
| 0.2% | Calcium, potassium salt of (−)-HCA [HCA (70%)] |  | 25.5% | 0% |  |
|  | CCCCC1C(=O)N(c2ccccc2)N(c2ccccc2)C1=O [phenylbutazone] |  |  |  | 1.7 |
